According to patent US7109242B2, “Carboxylic compound and medicine comprising the same” (Kowa Company, Ltd., priority 2003, dated 2006):
Where a name gives a salt, the structure may show the parent alone.

Tests used:
C57BL/KsJ db/db mouse = assay: Actions of lowering plasma glucose, insulin and triglyceride in vivo in db/db mice; conditions: for Reduction rate of plasma glucose / Reduction rate of plasma insulin / Reduction rate of plasma triglyceride: blood two hours after administration on 14th day; for Plasma glucose reducing action (ED25): oral once a day for 14 days, dose required for reduction of plasma glucose concentration by 25%, vehicle group as 100%
Description: The compounds of the present invention and the aforementioned Compound A and pioglitazone hydrochloride each as a reference compound were subjected to the measurements of the actions of lowering plasma glucose, insulin, and triglyceride in vivo according to the following method (Metabolism, 48, pp34–40, 1999, Journal of Medicinal Chemistry, 44, pp2601–2611, 2001).
C57BL/KsJ db/db mouse (Journal of Clinical Investigation, 85, pp 962–967, 1990) was used as an experimental animal, which was developed in The Jackson Laboratory (USA) and is known as a model animal with obesity, hyperlipemia, hyperinsulinemia, and insulin resistance.
Bloods were collected from seven weeks old db/db mice from their orbital sinus by using heparin-treated capillary tubes. After centrifugation of the bloods, plasma was collected and then subjected to measurements of concentrations of plasma glucose, insulin, and triglyceride to divide the animals. From the next day of the day of blood collection, the administrations of the compounds were started. The compounds were orally administered once a day for 14 days. On the 14th day, blood was collected from orbital sinus two hours after the administration of the compounds. Plasma was collected, and subjected to measurements of concentrations of plasma glucose, insulin, and triglyceride.
The dose required for reduction of plasma glucose concentration by 25% (ED25) was obtained using the value of the vehicle administered group as 100% (Arznimittel-Forschung, 40, pp156–162, 1990).

PPAR γ = molecular target: T1, PPAR γ (Homo sapiens, UniProt P37231); conditions: mode of action of thiazolidinedione type compounds; cited from earlier work
T1 sequence (P37231 1-505): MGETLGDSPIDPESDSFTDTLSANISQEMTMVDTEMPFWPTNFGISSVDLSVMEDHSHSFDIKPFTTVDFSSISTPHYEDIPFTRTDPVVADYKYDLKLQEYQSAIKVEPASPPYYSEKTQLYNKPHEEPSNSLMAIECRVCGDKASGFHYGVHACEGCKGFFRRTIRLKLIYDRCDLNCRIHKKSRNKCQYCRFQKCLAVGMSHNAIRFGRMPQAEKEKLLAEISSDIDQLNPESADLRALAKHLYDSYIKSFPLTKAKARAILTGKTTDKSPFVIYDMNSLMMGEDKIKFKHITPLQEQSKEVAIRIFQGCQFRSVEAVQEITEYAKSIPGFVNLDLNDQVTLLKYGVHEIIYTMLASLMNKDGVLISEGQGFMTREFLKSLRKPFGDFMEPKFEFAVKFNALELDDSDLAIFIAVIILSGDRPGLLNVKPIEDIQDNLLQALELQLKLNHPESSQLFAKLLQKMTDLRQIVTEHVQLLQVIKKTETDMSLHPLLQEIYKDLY

[1] = 3 mg/kg orally once a day for 14 days
[2] = 10 mg/kg orally once a day for 14 days
[3] = 30 mg/kg orally once a day for 14 days
[4] = 0.5 mg/kg orally once a day for 14 days, 0.5 mg/kg
[5] = 1.5 mg/kg orally once a day for 14 days, 1.5 mg/kg
[6] = 5 mg/kg orally once a day for 14 days, 5 mg/kg
[7] = 1 mg/kg orally once a day for 14 days

Compound | Reduction rate of plasma glucose (C57BL/KsJ db/db mouse; [1]) | Reduction rate of plasma insulin (C57BL/KsJ db/db mouse; [1]) | Reduction rate of plasma triglyceride (C57BL/KsJ db/db mouse; [1]) | Reduction rate of plasma glucose (C57BL/KsJ db/db mouse; [2]) | Reduction rate of plasma insulin (C57BL/KsJ db/db mouse; [2]) | Reduction rate of plasma triglyceride (C57BL/KsJ db/db mouse; [2]) | Reduction rate of plasma glucose (C57BL/KsJ db/db mouse; [3]) | Reduction rate of plasma insulin (C57BL/KsJ db/db mouse; [3]) | Reduction rate of plasma triglyceride (C57BL/KsJ db/db mouse; [3]) | Plasma glucose reducing action (ED25) (C57BL/KsJ db/db mouse) | further results
O=C(O)C(Cl)(Cl)CCCCCCCCC(O)Cc1ccc(Cl)cc1 (stereo not shown) [Example 4(4), 2,2-dichloro-12-(4-chlorophenyl)-11-hydroxydodecanoic acid] | 35.0 ± 21.2 | −19.8 ± 71.8 | 45.5 ± 13.9 | 65.2 ± 8.0 | 20.3 ± 24.9 | 58.8 ± 3.7 | 67.2 ± 6.8 | 51.1 ± 20.2 | 54.1 ± 6.6 | 1.1 mg/kg | 
O=C(O)C(Cl)(Cl)CCCCCCCCCC(O)c1ccc(Cl)cc1 (stereo not shown) [Example 3(4), 2,2-dichloro-12-(4-chlorophenyl)-12-hydroxydodecanoic acid] | 29.3 ± 28.7 | −2.8 ± 46.6 | 23.2 ± 24.7 | 53.4 ± 14.7 | 39.0 ± 10.3 | 40.6 ± 8.9 | 74.5 ± 3.0 | 61.7 ± 18.5 | 25.8 ± 24.7 | 2.4 mg/kg | 
O=C(O)C(Cl)(Cl)CCCCCCCC(O)CCc1ccc(Cl)cc1 (single isomer, unassigned; (+)) [Example 5(4), (+)-2,2-dichloro-12-(4-chlorophenyl)-10-hydroxydodecanoic acid] |  |  |  |  |  |  |  |  |  | 0.5 mg/kg | Reduction rate of plasma glucose (C57BL/KsJ db/db mouse; [4]): 20.7 ± 14.3; Reduction rate of plasma insulin (C57BL/KsJ db/db mouse; [4]): −22.0 ± 84.1; Reduction rate of plasma triglyceride (C57BL/KsJ db/db mouse; [4]): 42.0 ± 17.3; Reduction rate of plasma glucose (C57BL/KsJ db/db mouse; [5]): 40.6 ± 5.8; Reduction rate of plasma insulin (C57BL/KsJ db/db mouse; [5]): 39.5 ± 37.5; Reduction rate of plasma triglyceride (C57BL/KsJ db/db mouse; [5]): 48.3 ± 6.9; Reduction rate of plasma glucose (C57BL/KsJ db/db mouse; [6]): 42.4 ± 11.4; Reduction rate of plasma insulin (C57BL/KsJ db/db mouse; [6]): 43.8 ± 26.3; Reduction rate of plasma triglyceride (C57BL/KsJ db/db mouse; [6]): 44.6 ± 9.7; Plasma glucose reducing action (ED25) (C57BL/KsJ db/db mouse; listed as Example 5 (4)): 0.5 mg/kg
O=C(O)C(Cl)(Cl)CCCCCCCC(O)CCc1ccc(Cl)cc1 (single isomer, unassigned; (-)) [Example 5(5), (−)-2,2-dichloro-12-(4-chlorophenyl)-10-hydroxydodecanoic acid] |  |  |  |  |  |  |  |  |  | 1.7 mg/kg | Reduction rate of plasma glucose (C57BL/KsJ db/db mouse; [4]): −10.3; Reduction rate of plasma insulin (C57BL/KsJ db/db mouse; [4]): 20.8 ± 32.0; Reduction rate of plasma triglyceride (C57BL/KsJ db/db mouse; [4]): 23.0 ± 13.8; Reduction rate of plasma glucose (C57BL/KsJ db/db mouse; [5]): 28.5 ± 10.7; Reduction rate of plasma insulin (C57BL/KsJ db/db mouse; [5]): 20.4 ± 38.0; Reduction rate of plasma triglyceride (C57BL/KsJ db/db mouse; [5]): 40.5 ± 15.3; Reduction rate of plasma glucose (C57BL/KsJ db/db mouse; [6]): 49.2 ± 9.6; Reduction rate of plasma insulin (C57BL/KsJ db/db mouse; [6]): 68.9 ± 13.2; Reduction rate of plasma triglyceride (C57BL/KsJ db/db mouse; [6]): 37.6 ± 11.3
CCc1ccc(CCOc2ccc(CC3SC(=O)NC3=O)cc2)nc1 (stereo not shown) [Pioglitazone hydrochloride, reference compound] | 13.4 ± 18.3 | −24.7 ± 119.3 | 9.4 ± 15.9 | 22.3 ± 22.8 | −18.7 ± 52.5 | 25.4 ± 16.9 | 45.2 ± 21.2 | 13.9 ± 22.7 | 38.2 ± 8.1 | 8.3 mg/kg | 
O=C(O)C(Cl)(Cl)CCCCCCCCCCc1ccc(Cl)cc1 [Compound A] | 25.4 ± 17.7 | 7.4 ± 18.7 | 27.5 ± 17.5 | 65.3 ± 5.0 | 10.7 ± 61.6 | 54.6 ± 4.1 |  |  |  | 2.8 mg/kg | Reduction rate of plasma glucose (C57BL/KsJ db/db mouse; [7]): −5.0 ± 19.5; Reduction rate of plasma insulin (C57BL/KsJ db/db mouse; [7]): 0.7 ± 77.6; Reduction rate of plasma triglyceride (C57BL/KsJ db/db mouse; [7]): 23.4 ± 15.3; PPAR γ activating action (PPAR γ): no PPAR γ activating action
O=C(O)C(Cl)(Cl)CCCCCCCC(O)CCc1ccc(Cl)cc1 (stereo not shown) [Example 2(4), 2,2-dichloro-12-(4-chlorophenyl)-10-hydroxydodecanoic acid] | 44.4 ± 17.0 | −12.5 ± 58.1 | 53.2 ± 6.9 | 66.6 ± 4.1 | 39.1 ± 21.3 | 54.1 ± 5.5 | 75.2 ± 3.1 | 64.3 ± 10.1 | 55.7 ± 6.3 | 0.6 mg/kg | Plasma glucose reducing action (ED25) (C57BL/KsJ db/db mouse; listed as Example 2 (4)): 0.6 mg/kg
